Values of other authors as cited in US20190008798A1, “Coenzyme Q10 in the preventive treatment of type 2 diabetes” (Pharma Nord ApS, priority 2017, published 2019).

Columns and labels:
adipose tissue = conditions: mice

For `COC1=C(OC)C(=O)C(C/C=C(\C)CC/C=C(\C)CC/C=C(\C)CC/C=C(\C)CC/C=C(\C)CC/C=C(\C)CC/C=C(\C)CC/C=C(\C)CC/C=C(\C)CCC=C(C)C)=C(C)C1=O` [Q10, ubidecarenone], the “insulin sensitivity in the adipose tissue” value (adipose tissue) is listed as “improves insulin sensitivity” and the “mortality in subjects with cardiac failure” value is listed as “decrease mortality”.
